Data from patent publication US20260217767A1, “NOVEL A4B7 THIOETHER PEPTIDE DIMER ANTAGONISTS” (Protagonist Therapeutics, Inc., priority 2014, published 2026).
Where two headings read alike, the source gives them in different places. *1 amine or outer side, *2 acyl side, *3 side chain or, on linkers, in order; H or OH if unused. Where a SMILES comes first, the peptide text is derived from it. Bridges are numbered along the chain shown (N, C = ends). Roman numbers before positions name the chains, in order. [ ]: non-standard residue; d: D form. Phe(4-CF3) = N[C@@H](Cc1ccc(C(F)(F)F)cc1)C(=O)O; Phe(4-tBu) = CC(C)(C)c1ccc(C[C@H](N)C(=O)O)cc1; Bip = N[C@@H](Cc1ccc(-c2ccccc2)cc1)C(=O)O; Diglycolyl = O=C(COCC(=O)[*:2])[*:1]; NMeR = CN[C@@H](CCCNC(=N)N)C(=O)O; β3hE = N[C@@H](CCC(=O)O)CC(=O)O; X1 = O=C(c1ccccc1C[*:2])[*:1]; Pen = CC(C)(S)[C@H](N)C(=O)O; hCys = N[C@@H](CCS)C(=O)O

How the values were obtained:
α4β1 = molecular target: T1, α4β1 (Homo sapiens, UniProt P05556+P13612); test: α4β1-VCAM Competition ELISA; type: binding; details: read-out: ELISA A4B1
T1 construct: purchased R&D Systems 5668-A4
Experimental: α4β1-VCAM Competition ELISA
A Nunc MaxiSorp plate was coated with rh VCAM-1/CD106 Fc chimera (R&D #862-VC) at 400 ng/well in 50 ul per well in 1×PBS and incubated overnight at 4° C. The solution was removed by shaking and then blocked with 250 ul of 1% BSA in 1×PBS per well. The wells were then incubated at room temperature for 1 hr with shaking. Each well was then washed once with wash buffer (50 mM Tris-HCl pH7.6, 100 mM NaCL, 1 mM MnCl2 or MgCl2, 0.05% Tween-20). 25 ul of serial dilutions of peptides starting at 200 μM in assay buffer (Assay buffer: 50 mM Tris-HCl pH7.6, 100 mM NaCl, 1 mM MnCl2 or MgCl2, 0.05% Tween-20) was added to each well. Additionally, 25 μl of α4β1 (R&D Systems #5668-A4) was added to each well at a fixed concentration of 120 nM. The final peptide and α4β1 concentrations were 100 μM and 60 nM, respectively. The plates were then incubated at 37° C. for 2 hr. The solution was then removed by shaking and each well was washed three times with wash buffer. 50 ul of 9F10 antibody at 4 ug/ml (purified mouse anti-human CD49d, BD Bioscience Cat #555502) was then added to each well, and the plate was incubated at room temperature for Ihr with shaking. The solution was again removed by shaking, and each well was washed three times with wash buffer. 50 μl of peroxidase-conjugated AffiniPure Goat anti-mouse IgG (Jackson immune research cat #115-035-003) diluted in 1:5000 in assay buffer was added to each well. The plate was incubated at room temperature for 30 min with shaking. Each well was then washed 3 times with wash buffer. 100 ul of TMB was then added to each well and closely observe during developing time. The reaction was stepped with 2N H2SO4 and absorbance was read at 450 nm.

[1] = Simulated Intestinal Fluid (SIF) Stability Assay; type: in vitro ADME; details: pig, 37° C.; for half-life at 22 μM: simulated intestinal fluid (SIF) with 1% porcine pancreatin, pH 6.5, porcine pancreatin; for half-life: porcine pancreatin
In short: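 Peptide at 22 μM final was incubated at 37° C in blank FaSSIF pH 6.5 with 1% porcine pancreatin. Timed samples were quenched in acetonitrile/methanol/formic acid with internal standard and analysed by LC-MS/MS. Half-lives came from first-order exponential fits of percent remaining.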

[2] = thioether peptide dimers, Table 7
[3] = thioether monomer peptides, Table 6

T1 sequence (P13612 34-977 limits assumed): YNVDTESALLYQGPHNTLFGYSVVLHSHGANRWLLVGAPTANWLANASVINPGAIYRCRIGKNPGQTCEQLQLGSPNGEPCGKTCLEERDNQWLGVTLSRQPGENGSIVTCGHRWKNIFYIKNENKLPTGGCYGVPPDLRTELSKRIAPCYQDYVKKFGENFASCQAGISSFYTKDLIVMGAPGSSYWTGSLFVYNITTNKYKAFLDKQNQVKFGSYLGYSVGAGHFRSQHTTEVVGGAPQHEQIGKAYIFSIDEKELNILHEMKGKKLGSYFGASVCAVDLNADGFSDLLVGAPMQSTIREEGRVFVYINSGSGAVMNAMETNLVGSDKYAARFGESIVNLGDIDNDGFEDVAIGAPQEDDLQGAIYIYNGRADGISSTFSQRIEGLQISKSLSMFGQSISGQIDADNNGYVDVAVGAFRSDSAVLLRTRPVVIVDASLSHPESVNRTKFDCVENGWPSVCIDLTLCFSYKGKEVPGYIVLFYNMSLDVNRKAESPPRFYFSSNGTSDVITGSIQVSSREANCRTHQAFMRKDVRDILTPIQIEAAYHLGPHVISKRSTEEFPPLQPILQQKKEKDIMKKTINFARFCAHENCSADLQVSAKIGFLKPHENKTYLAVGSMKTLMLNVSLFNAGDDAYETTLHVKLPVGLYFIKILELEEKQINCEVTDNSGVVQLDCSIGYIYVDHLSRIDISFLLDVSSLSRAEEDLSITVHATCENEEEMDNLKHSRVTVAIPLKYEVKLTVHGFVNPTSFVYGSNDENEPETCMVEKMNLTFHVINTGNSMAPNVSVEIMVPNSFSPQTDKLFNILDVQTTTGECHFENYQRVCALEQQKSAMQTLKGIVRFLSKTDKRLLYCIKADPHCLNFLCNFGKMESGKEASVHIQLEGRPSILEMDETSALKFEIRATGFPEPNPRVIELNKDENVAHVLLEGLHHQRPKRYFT
T1 sequence (P05556 21-728 limits assumed): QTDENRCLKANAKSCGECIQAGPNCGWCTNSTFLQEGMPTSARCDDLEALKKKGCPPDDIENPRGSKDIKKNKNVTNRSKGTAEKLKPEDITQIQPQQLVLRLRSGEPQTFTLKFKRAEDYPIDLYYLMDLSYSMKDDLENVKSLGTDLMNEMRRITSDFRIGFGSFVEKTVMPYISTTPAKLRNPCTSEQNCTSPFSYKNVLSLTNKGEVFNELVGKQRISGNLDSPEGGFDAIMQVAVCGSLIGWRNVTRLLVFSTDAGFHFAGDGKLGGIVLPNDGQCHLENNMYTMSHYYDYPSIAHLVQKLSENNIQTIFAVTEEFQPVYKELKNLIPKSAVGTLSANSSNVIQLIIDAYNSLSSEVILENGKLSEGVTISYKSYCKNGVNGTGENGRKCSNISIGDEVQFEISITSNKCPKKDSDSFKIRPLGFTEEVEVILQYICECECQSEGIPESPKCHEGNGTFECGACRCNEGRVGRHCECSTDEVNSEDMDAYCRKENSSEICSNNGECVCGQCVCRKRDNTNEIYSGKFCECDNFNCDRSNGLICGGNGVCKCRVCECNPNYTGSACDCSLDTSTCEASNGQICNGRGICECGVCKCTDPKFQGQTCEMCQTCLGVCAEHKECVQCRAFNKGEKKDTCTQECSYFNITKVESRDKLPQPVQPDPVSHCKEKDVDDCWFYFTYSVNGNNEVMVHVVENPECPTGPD

SMILES	IC50 (α4β1; [2]) [nM]	half-life at 22 μM ([1]; monomers, Table 6) [min]	other results
CC(C)C[C@@H]1NC(=O)[C@H]([C@@H](C)O)NC(=O)[C@H](CC(=O)O)NC(=O)[C@H](CO)NC(=O)[C@H](CCCNC(=N)N)N(C)C(=O)C(C)SC[C@@H](C(=O)N[C@@H](Cc2c[nH]c3ccccc23)C(=O)N[C@H](CCCCN)C(N)=O)NC1=O (single isomer, unassigned) [compound 144]	> 1000	–	half-life at 22 μM ([1]; dimers, Table 7): < 20 min
CC(C)C[C@@H]1NC(=O)[C@H]([C@@H](C)O)NC(=O)[C@H](CC(=O)O)NC(=O)[C@H](CO)NC(=O)[C@H](CCCNC(=N)N)N(C)C(=O)c2ccccc2CSC[C@@H](C(=O)N[C@@H](Cc2c[nH]c3ccccc23)C(=O)N[C@@H](CCC(=O)O)C(=O)N[C@H](CCCCN)C(N)=O)NC1=O [compound 55] (HELM PEPTIDE1{[meR].S.D.T.L.C.W.E.[dK].[am]}|CHEM1{[O=C(c1ccccc1C[*:2])[*:1]]}$PEPTIDE1,CHEM1,1:R1-1:R1|PEPTIDE1,CHEM1,6:R3-1:R2$$$V2.0)	–	25	IC50 (α4β1; [3]): 100 to 1000 nM
CC(C)C[C@@H]1NC(=O)[C@H]([C@@H](C)O)NC(=O)[C@H](CC(=O)O)NC(=O)[C@H](CO)NC(=O)[C@H](CCCNC(=N)N)N(C)C(=O)c2ccccc2CSC(C)(C)[C@@H](C(=O)N[C@@H](Cc2cccc3ccccc23)C(=O)N[C@H](CCC(=O)O)C(=O)N(C)[C@@H](CCCCN)C(N)=O)NC1=O [compound 69] (HELM PEPTIDE1{[meR].S.D.T.L.[Pen].[O=C([C@H](Cc1cccc2ccccc12)N[*:1])[*:2]].[dE].[meK].[am]}|CHEM1{[O=C(c1ccccc1C[*:2])[*:1]]}$PEPTIDE1,CHEM1,1:R1-1:R1|PEPTIDE1,CHEM1,6:R3-1:R2$$$V2.0)	–	> 180	–
CC(=O)NCCCC[C@@H](NC(=O)[C@@H](CCC(=O)O)NC(=O)[C@H](Cc1c[nH]c2ccccc12)NC(=O)[C@H]1NC(=O)[C@H](CC(C)C)NC(=O)[C@H]([C@@H](C)O)NC(=O)[C@H](CC(=O)O)NC(=O)[C@H](CO)NC(=O)[C@H](CCCNC(=N)N)N(C)C(=O)c2ccccc2CSC1(C)C)C(N)=O [compound 81] (HELM PEPTIDE1{[meR].S.D.T.L.[Pen].W.[dE].[dK].[am]}|PEPTIDE2{[ac]}|CHEM1{[O=C(c1ccccc1C[*:2])[*:1]]}$PEPTIDE1,PEPTIDE2,9:R3-1:R2|PEPTIDE1,CHEM1,1:R1-1:R1|PEPTIDE1,CHEM1,6:R3-1:R2$$$V2.0)	–	–	IC50 (α4β1; [3]): 100 to 1000 nM
CC(C)C[C@@H]1NC(=O)[C@H]([C@@H](C)O)NC(=O)[C@H](CC(=O)O)NC(=O)[C@H](CO)NC(=O)[C@H](CCCNC(=N)N)N(C)C(=O)c2ccccc2CSC(C)(C)[C@@H](C(=O)N[C@@H](Cc2c[nH]c3ccccc23)C(=O)N[C@H](CCC(=O)O)C(=O)N[C@@H](CN)C(N)=O)NC1=O [compound 94] (HELM PEPTIDE1{[meR].S.D.T.L.[Pen].W.[dE].[NC[C@H](N[*:1])C(=O)[*:2]].[am]}|CHEM1{[O=C(c1ccccc1C[*:2])[*:1]]}$PEPTIDE1,CHEM1,1:R1-1:R1|PEPTIDE1,CHEM1,6:R3-1:R2$$$V2.0)	–	–	half-life ([1]; monomers, Table 6): > 180 min
CC(C)C[C@@H]1NC(=O)[C@H]([C@@H](C)O)NC(=O)[C@H](CC(=O)O)NC(=O)[C@H](CO)NC(=O)[C@H](CCCNC(=N)N)N(C)C(=O)c2ccccc2CSC(C)(C)[C@@H](C(=O)N[C@@H](Cc2c[nH]c3ccccc23)C(=O)N[C@H](CCC(=O)O)C(=O)N[C@@H](CCN)C(N)=O)NC1=O [compound 95] (HELM PEPTIDE1{[meR].S.D.T.L.[Pen].W.[dE].[Dab].[am]}|CHEM1{[O=C(c1ccccc1C[*:2])[*:1]]}$PEPTIDE1,CHEM1,1:R1-1:R1|PEPTIDE1,CHEM1,6:R3-1:R2$$$V2.0)	–	–	half-life ([1]; monomers, Table 6): > 180 min
CC(C)C[C@@H]1NC(=O)[C@H]([C@@H](C)O)NC(=O)[C@H](CC(=O)O)NC(=O)[C@H](CO)NC(=O)[C@H](CCCNC(=N)N)N(C)C(=O)c2ccccc2CSC(C)(C)[C@@H](C(=O)N[C@@H](Cc2c[nH]c3ccccc23)C(=O)N[C@@H](CCC(=O)O)C(N)=O)NC1=O [compound 96] (HELM PEPTIDE1{[meR].S.D.T.L.[Pen].W.E.[am]}|CHEM1{[O=C(c1ccccc1C[*:2])[*:1]]}$PEPTIDE1,CHEM1,1:R1-1:R1|PEPTIDE1,CHEM1,6:R3-1:R2$$$V2.0)	–	26	–
CC(C)C[C@@H]1NC(=O)[C@H]([C@@H](C)O)NC(=O)[C@H](CC(=O)O)NC(=O)[C@H](CO)NC(=O)[C@H](CCCNC(=N)N)N(C)C(=O)c2ccccc2CSC(C)(C)[C@@H](C(=O)N[C@@H](Cc2ccc3ccccc3c2)C(=O)N[C@H](CCC(=O)O)C(N)=O)NC1=O [compound 114] (HELM PEPTIDE1{[meR].S.D.T.L.[Pen].[O=C([C@H](Cc1ccc2ccccc2c1)N[*:1])[*:2]].[dE].[am]}|CHEM1{[O=C(c1ccccc1C[*:2])[*:1]]}$PEPTIDE1,CHEM1,1:R1-1:R1|PEPTIDE1,CHEM1,6:R3-1:R2$$$V2.0)	–	> 180	IC50 (α4β1; [3]): 25 to 100 nM
CC(C)C[C@@H]1NC(=O)[C@H]([C@@H](C)O)NC(=O)[C@H](CC(=O)O)NC(=O)[C@H](CO)NC(=O)[C@H](CCCNC(=N)N)N(C)C(=O)c2ccccc2CSC(C)(C)[C@@H](C(=O)N[C@@H](Cc2ccc(-c3ccccc3)cc2)C(=O)N[C@@H](CCC(=O)O)CC(N)=O)NC1=O [compound 133] ([NMeR]SDTL[Pen][Bip][β3hE]-NH2; linker N-6 via X1)	–	> 180	–
CC(C)C[C@@H]1NC(=O)[C@H]([C@@H](C)O)NC(=O)[C@H](CC(=O)O)NC(=O)[C@H](CO)NC(=O)[C@H](CCCNC(=N)N)N(C)C(=O)c2ccccc2CSC(C)(C)[C@@H](C(=O)N[C@@H](Cc2ccc(C(C)(C)C)cc2)C(=O)N[C@@H](CCC(=O)O)CC(N)=O)NC1=O [compound 134] ([NMeR]SDTL[Pen][Phe(4-tBu)][β3hE]-NH2; linker N-6 via X1)	–	> 180	–
CC(C)C[C@@H]1NC(=O)[C@H]([C@@H](C)O)NC(=O)[C@H](CC(=O)O)NC(=O)[C@H](CO)NC(=O)[C@H](CCCNC(=N)N)N(C)C(=O)CSC[C@@H](C(=O)N[C@@H](Cc2c[nH]c3ccccc23)C(=O)N[C@H](CCCCNC(=O)COCC(=O)NCCCC[C@@H](NC(=O)[C@H](Cc2c[nH]c3ccccc23)NC(=O)[C@@H]2CSCC(=O)N(C)[C@@H](CCCNC(=N)N)C(=O)N[C@@H](CO)C(=O)N[C@@H](CC(=O)O)C(=O)N[C@@H]([C@@H](C)O)C(=O)N[C@@H](CC(C)C)C(=O)N2)C(N)=O)C(N)=O)NC1=O [compound 143]	> 1000	–	–
CC(C)C[C@@H]1NC(=O)[C@H]([C@@H](C)O)NC(=O)[C@H](CC(=O)O)NC(=O)[C@H](CO)NC(=O)[C@H](CCCNC(=N)N)N(C)C(=O)c2ccccc2CSCC[C@@H](C(=O)N[C@@H](Cc2c[nH]c3ccccc23)C(=O)N[C@@H](CCC(=O)O)C(=O)N[C@H](CCCCNC(=O)COCC(=O)NCCCC[C@@H](NC(=O)[C@H](CCC(=O)O)NC(=O)[C@H](Cc2c[nH]c3ccccc23)NC(=O)[C@@H]2CCSCc3ccccc3C(=O)N(C)[C@@H](CCCNC(=N)N)C(=O)N[C@@H](CO)C(=O)N[C@@H](CC(=O)O)C(=O)N[C@@H]([C@@H](C)O)C(=O)N[C@@H](CC(C)C)C(=O)N2)C(N)=O)C(N)=O)NC1=O [compound 157] (I: [NMeR]SDTL[hCys]WE[dK]-NH2 / II: [NMeR]SDTL[hCys]WE[dK]-NH2; linker I:9-II:9 via Diglycolyl; linker I:N-I:6, II:N-II:6 via X1)	100 to 1000	–	half-life ([1]; dimers, Table 7): < 20 min
CC(C)C[C@@H]1NC(=O)[C@H]([C@@H](C)O)NC(=O)[C@H](CC(=O)O)NC(=O)[C@H](CO)NC(=O)[C@H](CCCNC(=N)N)N(C)C(=O)c2ccccc2CSC(C)(C)[C@@H](C(=O)N[C@@H](Cc2ccc(C(F)(F)F)cc2)C(=O)N[C@@H](CCC(=O)O)C(=O)N[C@H](CCCCNC(=O)COCC(=O)NCCCC[C@@H](NC(=O)[C@H](CCC(=O)O)NC(=O)[C@H](Cc2ccc(C(F)(F)F)cc2)NC(=O)[C@H]2NC(=O)[C@H](CC(C)C)NC(=O)[C@H]([C@@H](C)O)NC(=O)[C@H](CC(=O)O)NC(=O)[C@H](CO)NC(=O)[C@H](CCCNC(=N)N)N(C)C(=O)c3ccccc3CSC2(C)C)C(N)=O)C(N)=O)NC1=O [compound 166] (I: [NMeR]SDTL[Pen][Phe(4-CF3)]E[dK]-NH2 / II: [NMeR]SDTL[Pen][Phe(4-CF3)]E[dK]-NH2; linker I:9-II:9 via Diglycolyl; linker I:N-I:6, II:N-II:6 via X1)	25 to 100	–	half-life ([1]; dimers, Table 7): 30 min
